Assay [1] concerns SKMEL28 melanoma (SK-MeI-28) cells. Briefly: Cell viability assay (MTT), SKMEL28. The class given is cell-based. Particulars: Homo sapiens, SK-MEL-28, 48 hr treatment. How it is done:
(§1) Cell viability assays were also conducted to assess the anti-proliferative effects of the anti-tropomyosin compounds. Briefly, cells (1×10^3/well) were plated (96-well) and treated (48 hr) with anti-tropomyosin drug and viability measured using 3-(4,5-dimethylthiazol-2-yl)-2,5-diphenylterazolium bromide MTT. Cell viability was normalized to control (vehicle alone) and dose-response curves, and half maximal effective concentration (EC50) values were determined using Graph Pad Prism 5 (nonlinear regression sigmoidal dose-response variable slope).

Assay [2] relates to SHEP neuroblastoma (SH-EP) cells. Briefly: Cell viability assay (MTT), SHEP. The class given is cell-based. The conditions noted are these: 48 hr treatment. How it is done: as §1
The subject of the next assay is actin cytoskeleton. Briefly: Microfilament disruption assay (phalloidin actin staining). The class given is cell-based. The conditions noted are these: 24 hours. How it is done:
In silico modeling has identified binding sites on tropomyosin Tm5NM1, yielding the series of tropomyosin inhibitors the subject of the present invention. Inhibition of Tm5NM1 in tumour cells results in disruption of the actin cytoskeleton and ultimately cell death. The ability of compounds 2001-2012 to disrupt the actin cytoskeleton was assessed in vitro using the microfilament disruption assay. Briefly, cells were seeded (5×10^3/well) into 8-well chamber slides (NUNC) and treated with the concentrations of anti-tropomyosin compounds nominated in Table 1 for 24 hours using DMSO as vehicle control. Actin was visualized with Alexa 555 conjugated phalloidin (Molecular probes). Random fields were imaged using an Olympus IX81 microscope. Cells (n>50) were scored on the basis of positive filament staining from n=3 independent experiments.

The test system of a further assay is A549 lung (NSLC) cells. Briefly: Anti-proliferative assay (cell-titre luminescent), A549. The conditions noted are these: Homo sapiens; A549, 72 hours, luminescence. The class given is cell-based. In outline:
(§2)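 Seed cells at line-specific densities under ATCC conditions and culture 24 h. Add compound (0.1–30 μM) and incubate 72 hours. Add cell-titre luminescent reagent for 30 minutes, read luminescence, normalize to vehicle, and fit EC50.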

Assay [3] deals with CaCo2 colorectal cancer cells. Briefly: Anti-proliferative assay (cell-titre luminescent), CaCo2. The class given is cell-based. The conditions noted are these: Homo sapiens, Caco-2; CaCo2, 72 hours, luminescence. In outline: as §2
Assay [4] deals with PC3 prostate cancer cells. Briefly: Anti-proliferative assay (cell-titre luminescent), PC3. The conditions noted are these: PC3, 72 hours, luminescence. The format is cell-based. An outline of the steps:
as §2

In the next assay the test system is SK-Mel-28 melanoma cells. Briefly: Anti-proliferative assay (cell-titre luminescent), SK-Mel-28. The format is cell-based. The conditions noted are these: Homo sapiens; SK-Mel-28, 72 hours, luminescence. An outline of the steps:
as §2

In assay [5] the test system is SK-N-SH neuroblastoma cells. Briefly: Anti-proliferative assay (cell-titre luminescent), SK-N-SH. Particulars: Homo sapiens, 72 hours, luminescence. The class given is cell-based. An outline of the steps: as §2
Assay [6] has as its system DU145 prostate cancer cells. Briefly: Anti-proliferative assay (cell-titre luminescent), DU145. The format is cell-based. Particulars: Homo sapiens, DU-145; DU145, 72 hours, luminescence. In outline:
as §2

The test system of assay [7] is MDA-MB-231 breast cancer cells. Briefly: Anti-proliferative assay (cell-titre luminescent), MDA-MB-231. The class given is cell-based. The conditions noted are these: Homo sapiens; MDA-MB-231, 72 hours, luminescence. In outline: as §2
A further assay has as its target Tm5NM1 (Homo sapiens, UniProt P06753). The assay can be described thus: Pyrene-based actin filament depolymerization assay, Tm5NM1-containing actin filaments. Particulars: 50 μM compound, p=0.1 vs F-actin alone. The format is biochemical. How it is done:
FIG. 1: Impact of compound 2026 on Tm5NM1-regulated actin-filament depolymerization kinetics. (A and C) Depolymerization time course of 6 μM actin filaments (35% pyrene labelled) diluted 12-fold into F-actin buffer (100 mM NaCl, 10 mM Tris-HCl pH 7.0, 2 mM MgCl2, 1 mM EGTA, 0.2 mM CaCl2, 0.2 mM ATP, 0.5 mM DTT, 0.01% (v/v) NaN3) in the presence or absence of saturating amounts (10 μM) of Tm5NM1. Final concentration of F-actin and Tm5NM1 was 0.5 μM and 0.83 μM respectively. Tm5NM1 was pre-incubated with 50 μM compound 2026 or 1% (v/v) DMSO prior to mixing with F-actin. Depolymerization data is normalized to the initial fluorescence value. (B and D) Initial rates (V0) of depolymerization for F-actin alone or Tm5NM1/F-actin, in the presence of compound 2026. Initial rates of depolymerization were determined from the first 3600 s, fitted to a linear regression model. Data represents mean±SEM, averaged from n>6 replicates.
A brief overview and rationale of the assay is as follows: to promote depolymerization, pyrene-labelled actin filaments were diluted below the critical concentration of the pointed end (0.5 μM, as defined by Pollard et al., 1986). A decline in fluorescence was measured over time as actin monomers dissociate. […]
The depolymerization of F-actin alone and F-actin-coated with Tm5NM1 was then measured in the presence of compound and initial rates of depolymerization were compared. […]

The structures appear in SMILES notation.

Tm5NM1, sequence (P06753 1-248 isoform P06753-2): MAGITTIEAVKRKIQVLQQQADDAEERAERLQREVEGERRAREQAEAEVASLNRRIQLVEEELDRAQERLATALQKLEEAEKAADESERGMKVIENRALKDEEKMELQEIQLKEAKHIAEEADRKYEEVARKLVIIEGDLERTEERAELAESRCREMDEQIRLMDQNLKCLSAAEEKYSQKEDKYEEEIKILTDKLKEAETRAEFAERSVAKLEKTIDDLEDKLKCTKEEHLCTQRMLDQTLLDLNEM

By IC50 is commonly meant the concentration at which inhibition is half-maximal. The low end stands for higher potency, the high end for lower potency. On to `C/C(=C\C(=O)N1CCN(CCc2ccccc2)CC1)c1c(C)n(CCCN(C)C)c2ccccc12` [Compound 2001, (E)-3-(1-(3-(dimethylamino)propyl)-2-methyl-1H-indol-3-yl)-1-(4-phenethylpiperazin-1-yl)but-2-en-1-one], for which the half-maximal inhibitory concentration (IC50) in [1] was 1.64 µM; in [2], 11.5 µM.

As for `Cc1c(/C=C/C(=O)N2CCN(Cc3ccc(F)cc3)CC2)c2ccccc2n1CCCN(C)C` [Compound 2003, (E)-3-(1-(3-(dimethylamino)propyl)-2-methyl-1H-indol-3-yl)-1-(4-(4-fluorobenzyl)piperazin-1-yl)prop-2-en-1-one], the “Microfilament disruption 10 μM” value with actin cytoskeleton is given as “no cells”. In addition, the IC50 worked out at 3.1 µM in assay [1] and 2.3 µM in assay [2].

With `Cc1nc(-c2cn(CCCN(C)C)c3ccccc23)cc(N2CCN(CCc3ccccc3)CC2)n1` [Compound 2012, N,N-dimethyl-3-(3-(2-methyl-6-(4-phenethylpiperazin-1-yl)pyrimidin-4-yl)-1H-indol-1-yl)propan-1-amine], the IC50 in assay [1] was 3.2 µM; in assay [2], 21.7 µM.

With `Cc1c(/C=C/C(=O)N2CCN(CCc3ccccc3)CC2)c2ccccc2n1CCCN1CCOCC1` [Compound 2007, (E)-3-(2-methyl-1-(3-morpholinopropyl)-1H-indol-3-yl)-1-(4-phenethylpiperazin-1-yl)prop-2-en-1-one], the IC50 in [1] was found to be 33.1 µM; in [2] it was 24 µM.

As for `COc1ccc2c(c1)c(/C=C/C(=O)N1CCN(CCc3ccccc3)CC1)c(C)n2CCCN(C)C` [Compound 2009, (E)-3-(1-(3-(dimethylamino)propyl)-5-methoxy-2-methyl-1H-indol-3-yl)-1-(4-phenethylpiperazin-1-yl)prop-2-en-1-one], in the assay with actin cytoskeleton, the “Microfilament disruption 10 μM” value is given as “no cells”. The IC50 in the assay on A549 lung (NSLC) cells came out at 54.3 µM; in [3], 16.1 µM; in assay [4], 30 µM; in assay [1] it was 1.86 µM; in the assay on SK-Mel-28 melanoma cells, 6.5 µM; in assay [5] it was 10.8 µM. For the same molecule, the concentration for half-maximal inhibition (IC50) in [6] worked out at 14.3 µM; in assay [2], 2.4 µM; in assay [7], 30 µM.

For `Cc1c(/C=C/C(=O)N2CCN(CCc3ccccc3)CC2)c2ccccc2n1CCCN1CCN(C)CC1` [Compound 2008, (E)-3-(2-methyl-1-(3-(4-methylpiperazin-1-yl)propyl)-1H-indol-3-yl)-1-(4-phenethylpiperazin-1-yl)prop-2-en-1-one], in the assay with actin cytoskeleton, the “Microfilament disruption 10 μM” value is “no cells”. Moreover, the IC50 in assay [1] came out at 3.7 µM; in assay [2] it was 1.92 µM.

For `Cc1c(/C=C/C(=O)N2CCN(CCc3ccccc3)CC2)c2ccccc2n1CCN(C)C` [Compound 2006, (E)-3-(1-(2-(dimethylamino)ethyl)-2-methyl-1H-indol-3-yl)-1-(4-phenethylpiperazin-1-yl)prop-2-en-1-one], the IC50 in assay [1] is 157 µM; in assay [2], 12.5 µM.

As to `CCN(CC)CCCn1c(C)c(/C=C/C(=O)N2CCN(CCc3cccc(F)c3)CC2)c2cc(OC)ccc21` [Compound 2026, (E)-3-(1-(3-(diethylamino)propyl)-5-methoxy-2-methyl-1H-indol-3-yl)-1-(4-(3-fluorophenethyl)piperazin-1-yl)prop-2-en-1-one], the IC50 with A549 lung (NSLC) cells was determined as 3.4 µM; in assay [3], 4.1 µM; in [4] it was 5.2 µM; in the assay on SK-Mel-28 melanoma cells it was 1.7 µM; in assay [5], 2.5 µM; in assay [6], 9.8 µM. Moreover, the IC50 in assay [7] was determined as 4.3 µM. Besides, the “Effect on Tm5NM1 function (protection of actin filaments from depolymerization)” value on Tm5NM1 was “interacts with and impairs Tm5NM1 function”.

Regarding `Cc1c(/C=C/C(=O)N2CCN(C(=O)c3ccccc3)CC2)c2ccccc2n1CCCN(C)C` [Compound 2004, (E)-1-(4-benzoylpiperazin-1-yl)-3-(1-(3-(dimethylamino)propyl)-2-methyl-1H-indol-3-yl)prop-2-en-1-one], the IC50 in [1] was found to be 32.7 µM; in [2], 198 µM.

Take `CCCCN1CCN(C(=O)/C=C/c2c(C)n(CCCN(C)C)c3ccccc23)CC1` [Compound 2005, (E)-1-(4-butylpiperazin-1-yl)-3-(1-(3-(dimethylamino)propyl)-2-methyl-1H-indol-3-yl)prop-2-en-1-one]: the IC50 is 41 µM in [1] and 12.9 µM in [2].

Turning to `COc1ccc(CN2CCN(C(=O)/C=C/c3c(C)n(CCCN(C)C)c4ccccc34)CC2)cc1` [Compound 2010, (E)-3-(1-(3-(dimethylamino)propyl)-2-methyl-1H-indol-3-yl)-1-(4-(4-methoxybenzyl)piperazin-1-yl)prop-2-en-1-one], the half-maximal inhibitory concentration (IC50) was found to be 2.75 µM in assay [1] and 3.2 µM in assay [2].

Regarding `Cc1c(/C=C/C(=O)N2CCN(CCc3ccc(F)cc3)CC2)c2ccccc2n1CCCN(C)C` [Compound 2002, (E)-3-(1-(3-(dimethylamino)propyl)-2-methyl-1H-indol-3-yl)-1-(4-(4-fluorophenethyl)piperazin-1-yl)prop-2-en-1-one], in the assay with actin cytoskeleton, the “Microfilament disruption 10 μM” value is recorded as “no cells”. For the same molecule, the concentration for half-maximal inhibition (IC50) in the assay on A549 lung (NSLC) cells worked out at 11.9 µM; in assay [3], 23.5 µM; in assay [4], 22.5 µM; in assay [1], 2.01 µM; with SK-Mel-28 melanoma cells it was 5.7 µM; in [5] it was 12.2 µM. Moreover, the results for the IC50 in assay [6], in [2] and in assay [7] were 11.1 µM, 9.6 µM and 11.5 µM, respectively.

For the origin of these results see patent US20170157135A1 (Novogen Limited, priority 2013, published 2017).
